The values below come from publication PMC10289085, “The cytotoxicity effect of 7-hydroxy-3,4-dihydrocadalene from Heterotheca inuloides and semisynthetic cadalenes derivates towards breast cancer cells: involvement of oxidative stress-mediated apoptosis” (PeerJ, 2023).

For series [1], the system named is MCF7 human breast cancer cells. In words: MTT assay: cell viability. The class given is cell-based. To be noted: for MCF7 cell viability: 0.1 to 100 µM, 24, 48 and 72 h; for pIC50: MCF7, MTT. On the procedure:
MCF7 (#HTB-22) cell line, derived from human breast adenocarcinoma, was obtained from the American Type Culture Collection (ATCC®, Manassas, VA, USA). It was maintained under standard conditions: RPMI-1640, 2.0 g/L NaHCO3, supplemented with 10% FBS and gentamicin […].
(§1) Cells were treated with isolated compounds (0.1, 1, 5, 10, 25, 50 and 100 µM) for 24, 48 and 72 h. After treatments, culture media was replaced by MTT (100 μL) dissolved in RPMI media (0.33 mg/mL final concentration) per well and incubated at 37 °C with 5% CO2 for 1 h in dark. After incubating, supernatant was removed and replaced with DMSO to dissolve formazan crystals. Absorbance value was measured in a microplate reader (SPECTROstar Nano; BMG Labtech, Ortenberg, Germany) at 570 nm. IC25 and IC50 values were determined using GraphPad Prism 7.00 (GraphPad Software, La Jolla, CA, USA). Percentage of cell viability was calculated in comparison with control cells ([Mosmann, 1983]).
In general terms: Tetrazolium assays rely on reduction of a dye to a coloured formazan, in cell work by metabolically active cells.

A further series relates to HEK 293 cells. As to the kind of experiment: MTT assay: cell viability in non-tumoral control cells. It counts as cell-based, human. To be noted: non-tumoral cells from kidney, 72 h. How it is done:
HEK 293 (CRL-1573) cell line, human embryonic kidney, was obtained from ATCC® (Manassas, VA, USA). It was grown in DMEM medium (Caisson Laboratories, Inc., Smithfield, UT, USA) with 10% v/v phenol red of inactivated FBS, 44 mM NaHCO3, 1 mM sodium pyruvate and penicillin 100 I.U.−100 μg/mL streptomycin−25 ng/mL amphotericin B, pH 7.4. Both cell lines were incubated at 37 °C and 5% CO2.
as §1

Series [2] has as its system MCF7 cells. In words: Trypan blue dye exclusion assay: cell proliferation. It counts as cell-based, human. To be noted: IC50 (55.24 μM). On the procedure:
Cells were trypsinized, centrifuged and stained with trypan blue dye (0.4% w/v in PBS). The number of viable cells and dead cells were counted on a Neubauer hemocytometer under an inverted microscope. The percentage of cell proliferation was calculated by comparing with control cells.

Series [3] deals with MCF7 cells. In words: Cell morphology (Cytation 5 imaging). The class given is cell-based, human. Conditions: MCF7, 48 h; compound at IC50, H2O2 1 mM.
Series [4] has as its system MCF7 cells. As to the kind of experiment: Wound-healing assay: cell migration. It counts as cell-based, human. Conditions: IC50 (55.24 μM), 24, 48 and 72 h. On the procedure:
Wound areas were monitored at four different times (0, 24, 48, and 72 h) using the Cytation 5 cell imager (BioTek Instruments, Inc., Winooski, VT, USA). To determine the migration rate of the cells, the wound areas were quantified using the ImageJ software, ([Schneider, Rasband & Eliceiri, 2012]). The variation between the percentage of cell migration (as a function of time) was calculated using the following formula:
%Migration=100−[(Areaofinjurytimet/Areaofinjurytimezero)(100)]

Series [5] has as its system intracellular ROS in MCF7 cells. In words: DCFH-DA assay: intracellular ROS detection. The class given is cell-based, human. Conditions: compound at IC50 concentration, H2O2 1 mM. On the procedure:
Intracellular ROS were detected by fluorescent compound DCFH-DA. Cells were treated with 1.0 mM H2O2, IC50 (55.2 μM) and IC50/2 (27.6 μM) of 7-hydroxy-3,4-dihydrocadalene for 48 h. Then, culture media was replaced with DCFH-DA (20 μM dissolved in glucose 1.8 mg/mL PBS) per well and incubated in the dark for 30 min. DCF fluorescence intensity was measured using an FLx800 microplate fluorescence reader (Bio-Tek Instruments, Inc., Winooski, VT, USA) at 480 and 530 nm excitation and emission wavelengths, respectively ([LeBel, Ischiropoulos & Bondy, 1992]).

Series [6] deals with lipid peroxidation in MCF7 cells. As to the kind of experiment: TBARS assay: lipid peroxidation. The class given is cell-based, human. To be noted: MCF7, 48 h. How it is done:
(§2) Mechanical scraping was employed to collect adherent MCF7 cells after treatments. Then, cells were centrifugated (1,500 rpm for 5 min at 37 °C) and supernatants were removed. Pellets were lyzed adding lysis buffer (25 mM TrisHCl, pH 7.4, 150 mM NaCl, 1 mM EDTA, 0.1% Triton X-100, 1 mg/mL leupeptin, 0.5 mM PMSF and 1 mg/mL pepstatin) and put on ice for 20 min. Finally, cell lysates were centrifugated (2,500 rpm for 10 min at 4 °C) and supernatants were collected to following assays.
Total protein concentrations were measured as described by [Smith et al. (1985)]. BCA/CuSO4 reactive solution (1:20) was added to each cell lysates and incubated in the dark for 30 min at 37 °C. Absorbance was measured with a SPECTROstar Nano microplate reader (BMG Labtech, Ortenberg, Germany) at a wavelength of 550 nm.
Lipid peroxidation was measured colorimetrically as described by [Uchiyama & Mihara (1978)]. Cell pellets, stored at −80 °C, were thawed at room temperature and then, they were homogenized in thiobarbituric acid reactive substances (TBARS) solution (28.2 mM 2-TBA in 18.5 mL of TCA 16%-HCl 0.27 N). Then, the mixtures were heated for 10 min at 100 °C, and subsequently cooled in ice to stop the reaction. Supernatants of each sample were separated by centrifugation (3,000 rpm for 10 min at 4 °C) and immediately loaded into a SPECTROstar Nano microplate reader (BMG Labtech, Ortenberg, Germany) for absorbance measurement at 530 nm. TBARS values were expressed as nmol/mg protein.

Another series relates to caspase-9. In words: Caspase-9 activity assay (fluorometric, cell lysates). It counts as cell-based, human. To be noted: MCF7, 48 h; for Caspase 9 activity compared to control cells: compound at IC50, H2O2 1.0 mM. How it is done: as §2
(§3) Fluorometric assays of caspase-3 and caspase-9 enzymes were performed in accordance with the instructions provided by ALEXIS Biochemicals kits (Enzo Life Sciences Inc., San Diego, CA, USA). This enzymatic assay was based on hydrolysis of the peptide substrates of caspases-3/9 (Ac-DEVD 20 μM and Ac-LEHD 20 μM, respectively) conjugated to a fluorochrome (7-amido-4-methylcoumarin or AMC) at the terminal carbon of Asp, resulting in the release of the fluorescent motif. Cell lysates (20 μg) were used for each treatment. After incubation for 1 h at 37 °C, fluorescence was determined using a FLx800 microplate reader at excitation and emission wavelengths of 380 and 460 nm, respectively.

The next series relates to caspase-3. In words: Caspase-3 activity assay (fluorometric, cell lysates). To be noted: MCF7, 48 h. It counts as cell-based, human. How it is done:
as §2, §3

In the next series the test system is caspase 3. As to the kind of experiment: Immunoblotting of caspase 3. To be noted: MCF7, 48 h; compound at IC50 concentration, H2O2 1.0 mM. It counts as cell-based, human. How it is done:
(§4) Western blot assays were performed using standard techniques. Primary antibodies were anti-caspase-3, Bcl-2 and GAPDH from Santa Cruz Biotechnology (Santa Cruz Biotechnology, Inc., Dallas, TX, USA). The secondary antibody was anti-rabbit IgG, HRP-linked (Antibody #7074; Cell Signaling Technology, Danvers, MA, USA).
Background: In western blotting, separated proteins are transferred to a membrane and probed.

For the next series, the system named is Bcl-2. In words: Immunoblotting of Bcl-2. It counts as cell-based, human. To be noted: MCF7, 48 h, IC50 and IC50/2. On the procedure:
as §4

Series [7] relates to mitochondrial respiration of MCF7 cells. In words: Cell respirometry (high resolution, O2k). It counts as cell-based, human. To be noted: MCF7, IC50, 48 h. On the procedure:
The oxygen consumption experiments were performed using a high resolution respirometry equipment O2k meter (Oroboros Instruments, Innsbruck, Austria) described by [Aparicio-Trejo et al. (2019)]. The respiratory parameters were defined as: (A) Routine respiration, corresponding to oxygen consumption in presence only of cells in culture medium. (B) Leak of the respiration, corresponding to cellular oxygen consumption in presence of 15 μM oligomycin. (C) RCI corresponding to the ratio basal/leak. (D) Respiration attributable to OXPHOS (P) corresponding to: Routine-Leak. All parameters were corrected by subtracting non-mitochondrial respiration resulting from the addition of 15 μM rotenone and 15 μM antimycin A and normalized by cells number.

The test system of a further series is MCF7 cell line. On the set-up: method as in Rodríguez-Chávez et al. (2015b). To be noted: ref Rodríguez-Chávez et al. (2015b); cited from earlier work.
[8] abbreviates: compound at IC50 concentration, H2O2 1.0 mM.

pIC50: −log10 of the molar value. Entries after “also recorded” stand apart in the source; their conditions may differ.

Regarding `CC1=CC[C@H](C(C)C)c2cc(C)c(OC(=O)Nc3ccccc3)cc21` [7-(phenylcarbamate)-3,4-dihydrocadalene], the MCF7 cell viability result in series [1] (MTT) is listed as “did not show a clear trend of MCF7 cell viability reduction; also recorded: lower or null cytotoxic potential; also recorded: not cytotoxic”.
Regarding `Cc1cc2c(C(C)C)ccc(C)c2cc1OC(=O)Nc1ccccc1` [7-(phenylcarbamate)-cadalene], the MCF7 cell viability result in series [1] (MTT) is “lower or null cytotoxic potential; also recorded: not cytotoxic”. In addition, in [1] (MTT, 10 and 50 µM at 72 h of exposure), the MCF7 cell growth result is listed as “slightly inhibited MCF7 cell growth”.
With `CC1=CC[C@H](C(C)C)c2cc(C)c(O)cc21` [7-hydroxy-3,4-dihydrocadalene], the negative logarithm of the IC50 (pIC50) is 4.26 in series [1] (Homo sapiens, 48 h); 4.28 in series [1] (Homo sapiens, 72 h); 4.21 in the series on MCF7 cell line. Moreover, the MCF7 cell viability entry in series [1] (MTT) is “reduced MCF7 cell viability in a concentration and time-dependent manner”. The “Effect on HEK 293 cell viability” value with HEK 293 cells is recorded as “without effect”. Also, the Cell proliferation result with MCF7 cells [2] was “significantly reduced cell proliferation in a concentration and time dependent manner”. Further, the Cell morphology result in the series with MCF7 cells [3] is “morphological changes (cells are rounded off, adhesion capacity decreases, and membrane is blebbing) were observed”. Further, in the series with MCF7 cells [4], the MCF7 migration entry is “significantly inhibits MCF7 migration”. Moreover, the “Intracellular ROS levels compared to control cells” value in series [5] amounted to 182%. The “Lipid peroxidation levels (TBARS)” value stood at 0.23 nmol/mg protein in series [6] (IC50/2) and 0.52 nmol/mg protein in [6] (setting [8]). Further, the “Caspase 9 activity” value in the series with caspase-9 (IC50/2 concentration) is given as “no effect”. For the same compound, the “Caspase 9 activity compared to control cells” value with caspase-9 was found to be 118.42%. Moreover, in the series on caspase-3 (IC50/2 concentration), the “Caspase 3 activity” value is “no effect”. In addition, the “Expression of caspase 3 (Western blot)” value in the series with caspase 3 is “more evident”. In addition, in the series on Bcl-2, the “Bcl-2 levels (Western blot)” value is listed as “Slightly differences of Bcl-2 levels were observed but not significant”. For the same compound, in series [7], the RCI entry is “slightly reduction”.
In series [1] (24 h, positive control), `CC/C(=C(\c1ccc(O)cc1)c1ccc(OCCN(C)C)cc1)c1ccccc1` [(Z)-4-hydroxytamoxifen, reference compound] had a pIC50 of 4.78.
For the compound `OO` [H2O2, hydrogen peroxide, reference compound], the Cell morphology entry with MCF7 cells [3] was “morphological changes (cells are rounded off, adhesion capacity decreases, and membrane is blebbing) were observed”. In series [5], the “Intracellular ROS levels compared to control cells” value worked out at 194.9%. The “Lipid peroxidation levels (TBARS)” value in series [6] (setting [8]) is 0.24 nmol/mg protein. In addition, in the series with caspase-9, the “Caspase 9 activity compared to control cells” value was 115.08%. In addition, the “Caspase 3 activity compared to control cells” value in the series with caspase-3 (compound at IC50, H2O2 1.0 mM) turned out to be 136.25%. Also, the “Expression of caspase 3 (Western blot)” value in the series with caspase 3 was “increased”.

A word on the pIC50: it is the negative decadic logarithm of the IC50, by convention in mol/L.
